Assays:
[1] = test system: A549; assay: Cytotoxicity against human A549 cells by Alamar Blue assay; type: functional, cell-based
[2] = molecular target: T1, Histone deacetylase 3 (Homo sapiens, UniProt O15379); assay: Inhibition of human recombinant HDAC3 expressed in Sf21 insect cells using Ac-NH-GGK(Ac)-AMC as substrate after 180 mins by fluorescence assay
[3] = molecular target: Tyrosine-protein kinase ABL1 (Homo sapiens, UniProt P00519); assay: Inhibition of recombinant Abl1 (unknown origin) using poly-Glu-Tyr peptide as substrate
[4] = molecular target: Histone deacetylase; assay: Inhibition of HDAC in human HeLa cell nuclear extracts using Ac-NH-GGK(Ac)-AMC as substrate after 180 mins by fluorescence assay; type: protein assay
[5] = molecular target: Insulin receptor (Homo sapiens, UniProt P06213); assay: Inhibition of recombinant InsR (unknown origin) using poly-Glu-Tyr peptide as substrate
Chain of Insulin receptor (P06213 28-758 limits assumed): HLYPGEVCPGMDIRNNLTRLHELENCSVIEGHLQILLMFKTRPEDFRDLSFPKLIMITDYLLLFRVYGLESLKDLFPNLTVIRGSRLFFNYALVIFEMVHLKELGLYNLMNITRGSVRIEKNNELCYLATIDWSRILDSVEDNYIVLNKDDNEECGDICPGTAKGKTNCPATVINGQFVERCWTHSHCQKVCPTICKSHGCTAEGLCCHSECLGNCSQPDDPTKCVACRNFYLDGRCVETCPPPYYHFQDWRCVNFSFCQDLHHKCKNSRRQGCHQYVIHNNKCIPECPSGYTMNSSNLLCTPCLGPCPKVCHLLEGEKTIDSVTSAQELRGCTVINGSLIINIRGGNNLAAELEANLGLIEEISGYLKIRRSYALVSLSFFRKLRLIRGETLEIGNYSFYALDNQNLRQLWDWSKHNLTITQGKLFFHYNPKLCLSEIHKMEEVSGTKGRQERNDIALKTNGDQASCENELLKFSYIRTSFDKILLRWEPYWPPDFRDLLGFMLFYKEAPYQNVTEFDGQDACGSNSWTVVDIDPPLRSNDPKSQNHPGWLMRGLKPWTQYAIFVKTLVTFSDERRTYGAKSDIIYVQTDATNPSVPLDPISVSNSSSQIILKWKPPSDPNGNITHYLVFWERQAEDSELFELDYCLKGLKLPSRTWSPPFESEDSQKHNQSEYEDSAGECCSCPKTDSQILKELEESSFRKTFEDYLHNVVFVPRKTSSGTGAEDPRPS
Chain of Insulin receptor (P06213 763-1382 limits assumed): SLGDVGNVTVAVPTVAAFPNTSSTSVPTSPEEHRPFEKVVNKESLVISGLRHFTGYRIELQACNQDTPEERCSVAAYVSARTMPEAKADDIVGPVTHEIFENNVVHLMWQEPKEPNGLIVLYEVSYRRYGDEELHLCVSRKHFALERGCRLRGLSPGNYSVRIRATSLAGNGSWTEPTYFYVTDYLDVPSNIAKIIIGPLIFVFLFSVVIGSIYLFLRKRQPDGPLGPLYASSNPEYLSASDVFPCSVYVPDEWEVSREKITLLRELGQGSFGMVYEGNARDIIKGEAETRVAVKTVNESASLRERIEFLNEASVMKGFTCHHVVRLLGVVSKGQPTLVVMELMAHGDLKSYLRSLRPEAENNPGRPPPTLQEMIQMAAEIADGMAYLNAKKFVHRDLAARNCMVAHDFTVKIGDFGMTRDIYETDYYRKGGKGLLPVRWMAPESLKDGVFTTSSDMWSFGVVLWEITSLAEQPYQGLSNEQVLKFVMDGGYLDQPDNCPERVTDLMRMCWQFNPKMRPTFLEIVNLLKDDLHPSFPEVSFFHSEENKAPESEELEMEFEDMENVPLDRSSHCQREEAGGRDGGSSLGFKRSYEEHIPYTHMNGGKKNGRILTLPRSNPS

[6] = Cytotoxicity against human SKBR3 cells by Alamar Blue assay; type: functional, cell-based; details: SK-BR-3
[7] = molecular target: T2, Histone deacetylase 8 (Homo sapiens, UniProt Q9BY41); assay: Inhibition of human recombinant HDAC8 expressed in Sf21 insect cells using Ac-NH-GGK(Ac)-AMC as substrate after 180 mins by fluorescence assay
T2 sequence (Q9BY41 whole entry): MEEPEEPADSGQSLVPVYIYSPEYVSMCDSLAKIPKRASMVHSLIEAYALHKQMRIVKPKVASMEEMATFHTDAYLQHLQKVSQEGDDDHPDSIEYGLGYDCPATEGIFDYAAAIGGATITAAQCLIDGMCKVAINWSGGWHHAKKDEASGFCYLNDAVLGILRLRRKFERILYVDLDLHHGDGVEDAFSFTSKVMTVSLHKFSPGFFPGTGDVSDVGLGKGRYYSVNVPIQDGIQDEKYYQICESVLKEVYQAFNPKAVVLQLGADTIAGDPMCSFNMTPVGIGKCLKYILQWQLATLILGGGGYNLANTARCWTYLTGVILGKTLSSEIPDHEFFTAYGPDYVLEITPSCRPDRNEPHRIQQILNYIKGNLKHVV

[8] = molecular target: Serine/threonine-protein kinase PLK1 (Homo sapiens, UniProt P53350); assay: Inhibition of recombinant Plk1 (unknown origin) using poly-Glu-Tyr peptide as substrate
Chain of Serine/threonine-protein kinase PLK1 (P53350 whole entry): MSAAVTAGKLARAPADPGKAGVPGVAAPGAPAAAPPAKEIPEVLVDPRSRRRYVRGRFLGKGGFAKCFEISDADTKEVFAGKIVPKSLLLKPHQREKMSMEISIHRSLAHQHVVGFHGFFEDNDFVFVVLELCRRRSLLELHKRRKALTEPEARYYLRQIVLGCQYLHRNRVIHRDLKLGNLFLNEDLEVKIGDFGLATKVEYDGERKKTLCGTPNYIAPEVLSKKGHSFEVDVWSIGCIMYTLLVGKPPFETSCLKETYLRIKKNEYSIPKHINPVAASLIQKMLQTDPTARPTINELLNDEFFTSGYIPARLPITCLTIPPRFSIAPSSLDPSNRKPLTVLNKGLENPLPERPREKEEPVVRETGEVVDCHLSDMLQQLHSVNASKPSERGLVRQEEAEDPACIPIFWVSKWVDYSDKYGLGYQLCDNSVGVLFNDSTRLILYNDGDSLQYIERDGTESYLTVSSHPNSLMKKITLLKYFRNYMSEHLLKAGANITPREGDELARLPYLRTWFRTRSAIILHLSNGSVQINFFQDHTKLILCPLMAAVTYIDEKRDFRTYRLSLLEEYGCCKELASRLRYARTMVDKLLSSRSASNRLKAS

[9] = test system: A-431; assay: Cytotoxicity against human A431 cells by Alamar Blue assay; type: functional, cell-based
[10] = Cytotoxicity against human CAL27 cells by Alamar Blue assay; type: functional, cell-based; details: CAL-27
[11] = molecular target: T1, Histone deacetylase 3; assay: Inhibition of human recombinant HDAC3 expressed in Sf21 insect cells using Ac-NH-GGK(Ac)-AMC as substrate after 180 mins by fluorescence assay relative to control
[12] = Inhibition of recombinant PKA (unknown origin) using poly-Glu-Tyr peptide as substrate; design: species or system Homo sapiens
[13] = molecular target: Histone deacetylase; assay: Inhibition of HDAC in human HeLa cells using Boc-K(Ac)-AMC as substrate preincubated for 4 hrs before substrate addition measured after 3 hrs by fluorescence assay; type: cell-based
[14] = test system: SK-OV-3; assay: Cytotoxicity against human SKOV3 cells by Alamar Blue assay; type: functional, cell-based
[15] = molecular target: Platelet-derived growth factor receptor beta (Homo sapiens, UniProt P09619); assay: Inhibition of recombinant PDGFRbeta (unknown origin) using poly-Glu-Tyr peptide as substrate
Chain of Platelet-derived growth factor receptor beta (P09619 whole entry): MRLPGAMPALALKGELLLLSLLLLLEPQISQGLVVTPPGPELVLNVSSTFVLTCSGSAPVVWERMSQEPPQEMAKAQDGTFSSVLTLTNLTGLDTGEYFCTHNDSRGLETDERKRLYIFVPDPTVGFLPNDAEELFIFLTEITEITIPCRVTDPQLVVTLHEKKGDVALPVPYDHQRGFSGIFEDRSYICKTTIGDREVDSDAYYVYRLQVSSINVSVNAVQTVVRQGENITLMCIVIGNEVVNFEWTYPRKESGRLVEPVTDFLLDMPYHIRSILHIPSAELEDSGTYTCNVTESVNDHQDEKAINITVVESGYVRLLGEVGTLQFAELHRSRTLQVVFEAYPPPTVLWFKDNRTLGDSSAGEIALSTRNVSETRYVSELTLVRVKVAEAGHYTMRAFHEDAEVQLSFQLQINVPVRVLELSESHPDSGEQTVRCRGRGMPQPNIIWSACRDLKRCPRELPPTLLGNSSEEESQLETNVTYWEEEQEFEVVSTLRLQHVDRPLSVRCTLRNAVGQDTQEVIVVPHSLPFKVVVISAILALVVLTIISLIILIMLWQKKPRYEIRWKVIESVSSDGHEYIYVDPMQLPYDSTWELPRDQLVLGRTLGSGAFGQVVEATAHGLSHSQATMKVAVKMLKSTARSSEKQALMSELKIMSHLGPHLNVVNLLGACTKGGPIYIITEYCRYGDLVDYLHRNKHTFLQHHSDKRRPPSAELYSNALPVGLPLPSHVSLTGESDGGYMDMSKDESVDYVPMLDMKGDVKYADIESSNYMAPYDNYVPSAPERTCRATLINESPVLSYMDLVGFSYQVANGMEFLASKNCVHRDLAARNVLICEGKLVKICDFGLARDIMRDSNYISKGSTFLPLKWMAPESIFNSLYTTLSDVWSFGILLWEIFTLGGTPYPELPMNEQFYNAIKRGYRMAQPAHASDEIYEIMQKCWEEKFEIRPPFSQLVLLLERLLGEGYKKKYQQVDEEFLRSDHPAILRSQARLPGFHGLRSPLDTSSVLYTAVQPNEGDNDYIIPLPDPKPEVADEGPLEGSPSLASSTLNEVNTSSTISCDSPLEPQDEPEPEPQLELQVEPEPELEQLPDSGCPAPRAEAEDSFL

[16] = molecular target: T3, Histone deacetylase 1 (Homo sapiens, UniProt Q13547); assay: Inhibition of human recombinant HDAC1 expressed in human HEK293 cells using Ac-NH-GGK(Ac)-AMC as substrate after 180 mins by fluorescence assay
T3 sequence (Q13547 whole entry): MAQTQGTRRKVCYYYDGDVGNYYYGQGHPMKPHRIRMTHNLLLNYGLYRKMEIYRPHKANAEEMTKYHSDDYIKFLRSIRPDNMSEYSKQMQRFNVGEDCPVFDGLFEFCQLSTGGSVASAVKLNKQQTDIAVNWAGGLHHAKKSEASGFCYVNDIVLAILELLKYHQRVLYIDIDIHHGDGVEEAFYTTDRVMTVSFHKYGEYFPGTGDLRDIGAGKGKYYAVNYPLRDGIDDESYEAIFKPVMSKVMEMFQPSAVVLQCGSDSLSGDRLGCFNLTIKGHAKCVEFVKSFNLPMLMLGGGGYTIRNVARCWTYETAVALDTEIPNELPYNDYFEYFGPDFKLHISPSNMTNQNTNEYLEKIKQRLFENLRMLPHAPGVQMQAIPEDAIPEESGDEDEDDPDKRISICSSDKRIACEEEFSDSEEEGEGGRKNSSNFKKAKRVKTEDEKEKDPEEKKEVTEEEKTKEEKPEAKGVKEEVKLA

[17] = molecular target: T4, Protein deacetylase HDAC6 (Homo sapiens, UniProt Q9UBN7); assay: Inhibition of human recombinant HDAC6 expressed in human HEK293 cells using Ac-NH-GGK(Ac)-AMC as substrate after 180 mins by fluorescence assay
T4 sequence (Q9UBN7 whole entry): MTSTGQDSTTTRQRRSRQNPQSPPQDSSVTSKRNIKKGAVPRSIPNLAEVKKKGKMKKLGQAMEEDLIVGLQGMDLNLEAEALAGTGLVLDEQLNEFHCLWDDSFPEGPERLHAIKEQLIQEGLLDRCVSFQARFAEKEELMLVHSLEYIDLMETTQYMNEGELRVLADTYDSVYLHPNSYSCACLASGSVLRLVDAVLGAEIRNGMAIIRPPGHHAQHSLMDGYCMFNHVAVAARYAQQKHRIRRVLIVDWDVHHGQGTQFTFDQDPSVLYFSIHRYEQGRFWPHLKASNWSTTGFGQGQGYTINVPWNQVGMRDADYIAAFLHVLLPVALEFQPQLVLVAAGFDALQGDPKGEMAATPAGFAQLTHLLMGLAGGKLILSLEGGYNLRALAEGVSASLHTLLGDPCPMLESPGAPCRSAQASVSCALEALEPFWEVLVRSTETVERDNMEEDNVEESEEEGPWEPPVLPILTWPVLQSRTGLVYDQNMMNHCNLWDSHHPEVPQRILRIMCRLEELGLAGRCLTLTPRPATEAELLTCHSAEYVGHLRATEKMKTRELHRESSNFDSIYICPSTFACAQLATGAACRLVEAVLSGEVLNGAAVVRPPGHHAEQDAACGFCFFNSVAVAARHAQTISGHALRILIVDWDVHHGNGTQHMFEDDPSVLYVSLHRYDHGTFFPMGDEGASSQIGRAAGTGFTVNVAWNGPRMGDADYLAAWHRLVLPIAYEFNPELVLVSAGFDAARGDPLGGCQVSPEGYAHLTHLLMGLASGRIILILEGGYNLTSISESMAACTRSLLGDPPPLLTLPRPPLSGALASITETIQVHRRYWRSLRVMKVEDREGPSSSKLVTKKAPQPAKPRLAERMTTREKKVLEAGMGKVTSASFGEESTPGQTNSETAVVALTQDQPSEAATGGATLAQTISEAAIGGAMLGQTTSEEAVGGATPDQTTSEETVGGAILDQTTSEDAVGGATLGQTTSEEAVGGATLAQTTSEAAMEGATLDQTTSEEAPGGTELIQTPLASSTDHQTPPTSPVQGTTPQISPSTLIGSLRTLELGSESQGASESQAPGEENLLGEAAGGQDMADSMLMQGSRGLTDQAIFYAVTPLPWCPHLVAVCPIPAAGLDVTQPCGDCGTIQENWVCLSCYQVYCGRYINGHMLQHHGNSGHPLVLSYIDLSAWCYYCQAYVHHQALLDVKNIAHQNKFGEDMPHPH

[18] = molecular target: Cyclin-dependent kinase 2 (Homo sapiens, UniProt P24941); assay: Inhibition of recombinant CDK2 (unknown origin) using poly-Glu-Tyr peptide as substrate
[19] = molecular target: Receptor tyrosine-protein kinase erbB-2 (Homo sapiens, UniProt P04626); assay: Inhibition of recombinant HER2 (unknown origin) using poly-Glu-Tyr peptide as substrate
Chain of Receptor tyrosine-protein kinase erbB-2 (P04626 whole entry): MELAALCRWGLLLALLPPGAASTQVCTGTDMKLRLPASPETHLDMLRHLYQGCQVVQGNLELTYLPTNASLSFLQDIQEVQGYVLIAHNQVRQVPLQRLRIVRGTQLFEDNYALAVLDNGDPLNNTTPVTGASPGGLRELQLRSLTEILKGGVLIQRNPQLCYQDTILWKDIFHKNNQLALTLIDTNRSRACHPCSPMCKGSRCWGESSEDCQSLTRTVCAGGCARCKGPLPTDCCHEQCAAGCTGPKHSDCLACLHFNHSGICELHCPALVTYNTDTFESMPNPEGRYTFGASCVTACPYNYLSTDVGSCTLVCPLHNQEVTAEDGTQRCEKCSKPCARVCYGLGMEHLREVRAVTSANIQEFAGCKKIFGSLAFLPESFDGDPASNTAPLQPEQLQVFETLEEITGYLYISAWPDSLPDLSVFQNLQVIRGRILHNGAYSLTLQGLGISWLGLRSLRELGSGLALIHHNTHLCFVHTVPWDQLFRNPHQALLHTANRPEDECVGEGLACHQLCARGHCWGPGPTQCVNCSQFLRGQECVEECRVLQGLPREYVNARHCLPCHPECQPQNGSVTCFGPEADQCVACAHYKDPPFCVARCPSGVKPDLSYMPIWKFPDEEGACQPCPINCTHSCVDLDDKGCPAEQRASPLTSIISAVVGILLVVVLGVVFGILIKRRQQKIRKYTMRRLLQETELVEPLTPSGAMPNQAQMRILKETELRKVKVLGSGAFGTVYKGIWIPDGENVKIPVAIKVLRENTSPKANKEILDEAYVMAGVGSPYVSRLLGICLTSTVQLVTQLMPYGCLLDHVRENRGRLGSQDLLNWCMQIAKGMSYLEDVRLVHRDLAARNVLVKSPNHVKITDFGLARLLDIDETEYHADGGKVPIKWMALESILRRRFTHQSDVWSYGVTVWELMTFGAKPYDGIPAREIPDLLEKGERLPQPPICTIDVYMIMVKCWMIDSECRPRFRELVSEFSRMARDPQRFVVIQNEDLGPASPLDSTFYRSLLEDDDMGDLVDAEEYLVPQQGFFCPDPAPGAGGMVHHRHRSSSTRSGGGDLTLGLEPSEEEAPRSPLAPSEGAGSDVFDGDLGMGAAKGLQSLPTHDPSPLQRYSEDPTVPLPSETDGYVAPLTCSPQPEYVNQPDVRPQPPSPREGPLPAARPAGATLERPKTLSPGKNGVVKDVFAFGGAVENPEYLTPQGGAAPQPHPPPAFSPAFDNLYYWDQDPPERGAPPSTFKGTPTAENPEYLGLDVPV

[20] = molecular target: T5, Histone deacetylase (Homo sapiens) (UniProt Q13547+O15379+Q9UBN7+Q92769+Q9UQL6+Q8WUI4+Q9BY41+Q96DB2+P56524+Q9UKV0+Q969S8); assay: Inhibition of HDAC in human HeLa cell nuclear extracts using Ac-NH-GGK(Ac)-AMC as substrate after 180 mins by fluorescence assay relative to control; type: protein assay
[21] = test system: HeLa; assay: Cytotoxicity against human HeLa cells by Alamar Blue assay; type: functional, cell-based
[22] = molecular target: Epidermal growth factor receptor (Homo sapiens, UniProt P00533); assay: Inhibition of recombinant EGFR (unknown origin) using poly-Glu-Tyr peptide as substrate
[23] = molecular target: T5, Histone deacetylase (Homo sapiens); assay: Inhibition of HDAC in human HeLa cells using Boc-K(Ac)-AMC as substrate preincubated for 4 hrs before substrate addition measured after 3 hrs by fluorescence assay relative to control; type: cell-based
[24] = molecular target: T3, Histone deacetylase 1; assay: Inhibition of human recombinant HDAC1 expressed in human HEK293 cells using Ac-NH-GGK(Ac)-AMC as substrate after 180 mins by fluorescence assay relative to control

Row | Structure (SMILES) | IC50 [1] [µM] | IC50 [2] [µM] | IC50 [3] [µM] | IC50 [4] [µM] | IC50 [5] [µM] | IC50 [6] [µM] | IC50 [7] [µM] | IC50 [8] [µM] | IC50 [9] [µM] | IC50 [10] [µM] | IC50 [12] [µM] | IC50 [13] [µM] | IC50 [14] [µM] | IC50 [15] [µM] | IC50 [16] [µM] | IC50 [17] [µM] | IC50 [18] [µM] | IC50 [19] [µM] | Imax [20] [%] | IC50 [21] [µM] | further results
1 | C#Cc1cccc(Nc2ncnc3ccc(S(=O)(=O)n4ccc(/C=C/C(=O)Nc5ccccc5N)c4)cc23)c1 | 3.7 | 0.84 | 15 | 7.2 | 41 | 27 | > 32 | 27 | 3.7 | 2.5 | 24 | 4.24 | 5.7 | 16 | 0.091 | > 32 | 17 | 2.9 | 50 | 3.45 | Imax [11]: 75%; IC50 [22]: 1.3 µM
2 | C#Cc1cccc(Nc2ncnc3ccc(S(=O)(=O)n4ccc(/C=C/C(=O)NO)c4)cc23)c1 | 0.24 | 0.015 | 27 | 0.0064 | 65 | 0.19 | 0.59 | > 100 | 0.26 | 0.16 | > 100 | 0.034 | 0.56 | 70 | 0.0065 | 0.0073 | > 100 | 3.4 | – | 0.5 | IC50 [22]: 1.2 µM
3 | C#Cc1cccc(Nc2ncnc3cc(NC(=O)c4ccc(C(=O)Nc5ccccc5N)nc4)ccc23)c1 | 2.1 | 0.32 | – | 0.51 | – | > 50 | > 32 | – | 0.79 | 0.45 | – | > 5.01 | > 50 | – | 5.6 | > 32 | – | – | 30 | 1.5 | –
4 | C#Cc1cccc(Nc2ncnc3cc(OCCOC)c(OCCOC)cc23)c1 [ERLOTINIB] | > 50 | > 32 | – | > 32 | – | 15 | > 32 | – | 2.5 | 0.074 | > 100 | > 15.8 | 31 | – | > 32 | > 32 | – | – | – | 8.3 | –
5 | C#Cc1cccc(Nc2ncnc3ccc(NC(=O)c4ccc(C(=O)Nc5ccccc5N)cc4)cc23)c1 | > 50 | 0.61 | – | > 32 | – | > 50 | > 32 | – | > 16 | 0.33 | – | > 15.8 | > 50 | – | 10.5 | > 32 | – | – | – | > 50 | –
6 | C#Cc1cccc(Nc2ncnc3ccc(OCc4ccc(C(=O)Nc5ccccc5N)cc4)cc23)c1 | 0.9 | 0.55 | 7 | 0.2 | 36 | 3.4 | > 32 | > 100 | 1.6 | 0.61 | > 100 | 1.85 | 5.1 | 7.2 | 0.041 | > 32 | 13 | 0.066 | 50 | 1.35 | IC50 [22]: 0.078 µM
7 | C#Cc1cccc(Nc2ncnc3cc(NC(=O)c4ccc(C(=O)Nc5ccccc5N)cc4)ccc23)c1 | 1.4 | 0.5 | – | 0.2 | – | 39 | > 32 | – | 1.6 | 0.46 | – | 0.78 | > 50 | – | 0.8 | > 32 | – | – | 30 | 1.7 | Imax [23]: 30%
8 | C#Cc1cccc(Nc2ncnc3ccc(NC(=O)c4ccc(C(=O)Nc5ccccc5N)s4)cc23)c1 | > 50 | 0.92 | – | > 32 | – | > 50 | > 32 | – | > 16 | 0.41 | – | > 15.8 | > 50 | – | 8.6 | > 32 | – | – | – | > 50 | –
9 | Nc1ccccc1NC(=O)c1ccc(COc2ccc3ncnc(Nc4cccc(Br)c4)c3c2)cc1 | 1.3 | 0.51 | 11 | 0.25 | 150 | 5.1 | > 32 | > 100 | 1.7 | 0.62 | > 100 | 2.46 | 6.3 | 28 | 0.074 | > 32 | 22 | 0.039 | – | 1.45 | Imax [11]: 75%; IC50 [22]: 0.033 µM
10 | C#Cc1cccc(Nc2ncnc3cc(NC(=O)c4ccc(C(=O)Nc5ccccc5N)s4)ccc23)c1 | 0.82 | 0.77 | – | 0.38 | – | 33 | > 32 | – | 0.96 | 1.2 | – | > 5.01 | 30 | – | 2.2 | > 32 | – | – | 30 | 1.8 | Imax [24]: 75%; Imax [11]: 70%
11 | C#Cc1cccc(Nc2ncnc3ccc(NC(=O)c4ccc(C(=O)Nc5ccccc5N)nc4)cc23)c1 | 39 | 0.44 | – | > 32 | – | 11 | > 32 | – | > 16 | 8 | – | > 15.8 | 7.7 | – | 0.31 | > 32 | – | – | – | 21.5 | Imax [24]: 70%

From ChEMBL document CHEMBL3217617 (Medchemcomm, 2012)
